Laboratory results from patent US20080161248A1, “Methods and Compositions for Therapeutic Treatment” (priority 2006, published 2008).
Read-outs that look alike come from different tables or passages of the source.

Experiments:
[1] = body surface area corrections, cited from earlier work
[2] = system: LEW responder splenocytes with irradiated BN stimulators (lymphocyte proliferation); experiment: Mixed lymphocyte reaction (MLR) with spleen cells of treated Lewis rats; format: cell-based, rat; settings: Lewis rats 1 mg/kg i.v.; spleens 4 hr after dosing; R:S ratios 0.5:1, 1:1, 5:1
Method: Animals: 8-9 weeks-old Lewis and Brown Norway male rats were obtained from Charles River Laboratories. […] Treatment: Lewis rats were treated with different single doses of LNS 0694i.p. 30 minutes prior to single i.v. injections of tacrolimus at a concentration of 1 mg/kg as described in the table below. Spleens were collected at 4 hr after administration of FK506 for use in the in vitro mixed lymphocyte reaction (MLR) and Con A assays. […] Mixed lymphocyte reactions: A single cell suspension of the spleen of each rat on test (LEW, responder) was prepared with a Dounce homogenizer and wash-medium. The cell suspension was depleted of red blood cells (treatment with NH4CL/Tris buffer) and washed twice with wash medium before resuspending in complete medium (CM; […] A single cell suspension of splenocytes from five Brown Norway rats (BN, stimulators) was prepared with the same method. The BN splenocytes were pooled and irradiated with 1,500-2,000 rad (cesium source) before use. Varying numbers of responder cells were mixed with a constant number of stimulators (105) in 96-well, U-bottom cell culture plates to give a final responder:stimulator (R:S) ratio of 10:1,5: 1, 1:1 and 0.5:1 in 200 μl CM. […] The results of the MLR assays [thymidine incorporation as counts per minute (CPM)] are expressed as mean ±SD.

[3] = mice, mdr1 gene depleted; cited from earlier work
[4] = cited from earlier work
[5] = system: mouse spleen cells, response to LPS; experiment: In vitro LPS assay on spleen cells; format: cell-based; settings: high ([…]10^6 cells/well) and low (8×10^5 cells/well) cell concentration
Source text: (§1) Animals: 8-9 weeks-old Lewis and Brown Norway male rats were obtained from Charles River Laboratories. General procedures for animal care and housing was in accordance with the National Research Council (NRC) Guide for the Care and Use of Laboratory Animals (1996) and the Animal Welfare Standards incorporated in 9 CFR Part 3, 1991.
(§2) Spleens were collected for use in in vitro Con A and LPS assays.
FIGS. 10 and 11 show the effect of quercetin and tacrolimus on response of mouse spleen cells to LPS at a high (1.6×10^6 cells/well) and low (8×10^5 cells/well) cell concentration, respectively.

[6] = US heart transplantation study; cited from earlier work
[7] = cited from earlier work; remark: listed apart in the source
[8] = cited from earlier work; remark: listed apart in the source
[9] = cited from earlier work; remark: listed apart in the source
murine or human T cells = settings: cited from earlier work
[10] = liver transplantation, U.S. study, 12-month post-transplant; cited from earlier work
[11] = system: mouse spleen cells, response to Con A; experiment: In vitro Con A assay on spleen cells; format: cell-based; settings: high ([…]10^6 cells/well) and low (8×10^5 cells/well) cell concentration
Source text: as §1, §2
Results: FIGS. 8 and 9 show the effect of quercetin and tacrolimus on response of mouse spleen cells to Con A at a high (1.6×10^6 cells/well) and low (8×10^5 cells/well) cell concentration, respectively.
Spleen cells were treated with Con A in the presence of vehicle, tacrolimus, quercetin or two different concentrations of tacrolimus (10^−8.2 and 10^−8.5 M) and increasing doses of quercetin at a high cell concentration (FIG. 14) or at a low cell concentration (FIG. 15). […] There was no significance difference between the effect of quercetin on tacrolimus induced cell suppression in vitro at the different concentrations used for quercetin.

For `C=CC[C@@H]1/C=C(\C)C[C@H](C)C[C@H](OC)C2O[C@@](O)(C(=O)C(=O)N3CCCC[C@H]3C(=O)O[C@H](/C(C)=C/[C@@H]3CC[C@@H](O)[C@H](OC)C3)[C@H](C)[C@@H](O)CC1=O)[C@H](C)C[C@@H]2OC` (relative stereo) [Prograf, [3S-[3R[E(1S*,3S*,4S*)], 4S*,5R*,8S*,9E,12R*,14R*,15S*,16R*,18S*,19S*,26aR*]]-,6,8,11,12,13,14,15,16,17,18,19,24,25,26,26a-hexadecahydro-5,19-dihydroxy-3-[2-(4-hydroxy-3-methoxycyclohexyl)-1-methylethenyl]-14,16-dimethoxy-4,10,12,18-tetramethyl-8-(2-propenyl)-15,19-epoxy-3H-pyrido[2,1-c][1,4]oxaazacyclotricosine-1,7,20,21 (4H,23H)-tetrone, monohydrate], the “dose at or above which mortalities were seen” value (from here on “dose”) ([1]; adult rats, IV) is given as ≥ 16 × the recommended human IV dose, the “dose” value ([1]; adult rats, oral) is given as ≥ 52 × the recommended human oral dose and the “dose” value ([1]; immature rats, oral) is given as ≥ 16 × the recommended oral dose. For the same compound, the “effect on MLR (lymphocyte proliferation, thymidine incorporation)” value [2] was “inhibited MLR”, the “concentration in the brain” value [3] was “markedly increased” and the “erythrocyte and plasma protein binding” value [4] was “extensive”. The “effect on response of spleen cells to LPS (proliferation)” value [5] was “inhibited LPS-induced proliferation in a dose dependent manner”, the “Other targeted treatment-emergent adverse events (Cushingoid features, impaired wound healing, hyperkalemia, Candida infection, CMV infection/syndrome), rate” value [6] was “less than 15%” and the “Neurotoxicity, including tremor, headache, and other changes in motor function, mental status, and sensory function” value ([7]; liver transplant recipients, two randomized studies) was “approximately 55%”. The “proportion of patients reporting more than one adverse event” value ([7]; two randomized comparative liver transplant trials) was 99.8%, the aqueous solubility [8] was “poor” and the “patients with trough concentrations within the pre-defined target range” value ([9]; European heart study, target range 5-15 ng/mL) was 74-86%. For the same compound, the “Adverse event: Tremor” value ([9]; heart transplant patients, European trial) was 15%, the “concentrations inhibiting proliferation of stimulated T cells” value (murine or human T cells; T cells stimulated by specific antigens, antibodies to TCR/CD3 or mitogenic lectins) was “subnanomolar” and the “potency relative to cyclosporin A (CsA)” value (murine or human T cells; higher potency than CsA, disrupting calcium signaling leading to lymphokine production) was 50-100 fold. For the same compound, the “Adverse event: Abdominal Pain” value [10] was 59%, the “Adverse event: Anemia” value [10] was 47% and the “Adverse event: Anorexia” value [10] was 34%. For the same compound, the “Adverse event: Ascites” value [10] was 27%, the “Adverse event: Asthenia” value [10] was 52% and the “Adverse event: Atelectasis” value [10] was 28%. For the same compound, the “Adverse event: BUN Increased” value [10] was 30%, the “Adverse event: Back Pain” value [10] was 30% and the “Adverse event: Constipation” value [10] was 24%. The “Adverse event: Creatinine Increased” value [10] was 39%, the “Adverse event: Diarrhea” value [10] was 72% and the “Adverse event: Dyspnea” value [10] was 29%. For the same compound, the “Adverse event: Fever” value [10] was 48%, the “Adverse event: Headache” value [10] was 64% and the “Adverse event: Hyperglycemia” value [10] was 47%. For the same compound, the “Adverse event: Hyperkalemia” value [10] was 45%, the “Adverse event: Hypertension” value [10] was 47% and the “Adverse event: Hypokalemia” value [10] was 29%. For the same compound, the “Adverse event: Hypomagnesemia” value [10] was 48%, the “Adverse event: Insomnia” value [10] was 64% and the “Adverse event: Kidney Function Abnormal” value [10] was 40%. The “Adverse event: LFT Abnormal” value [10] was 36%, the “Adverse event: Leukocytosis” value [10] was 32% and the “Adverse event: Nausea” value [10] was 46%. For the same compound, the “Adverse event: Oliguria” value [10] was 18%, the “Adverse event: Pain” value [10] was 63% and the “Adverse event: Paresthesia” value [10] was 40%. For the same compound, the “Adverse event: Peripheral Edema” value [10] was 26%, the “Adverse event: Pleural Effusion” value [10] was 30% and the “Adverse event: Pruritus” value [10] was 36%. The “Adverse event: Rash” value [10] was 24%, the “Adverse event: Thrombocytopenia” value [10] was 24% and the “Adverse event: Tremor” value [10] was 56%. The “Adverse event: Urinary Tract Infection” value [10] was 16%, the “Adverse event: Vomiting” value [10] was 27% and the “effect on response of spleen cells to Con A (proliferation)” value [11] was “inhibited Con A-induced proliferation in a dose dependent manner”.
